Two molecules from paper PMC11167047 (Cell Death Discovery, 2024) can be followed below.

What all share (assay): kinome screen (33PanQinase)
What all share (assay type): biochemical

For one assay, the target named is T1, CDK4/CycD1 (Homo sapiens, UniProt P11802).
T1 construct: purchased Reaction Biology Europe GmbH (formerly ProQinase)
Here is the method:
(§1) The Kinome Screening was performed by Reaction Biology Europe GmbH (http://reactionbiology.com; Freiburg i. Br., Germany).

The next assay addresses T2, AKT3 (Homo sapiens, UniProt Q9Y243).
T2 construct: purchased Reaction Biology Europe GmbH (formerly ProQinase)
Here is the method:
as §1

The target of a further assay is T3, TBK1 (Homo sapiens, UniProt Q9UHD2).
T3 construct: purchased Reaction Biology Europe GmbH (formerly ProQinase)
T3 sequence (Q9UHD2 1-729): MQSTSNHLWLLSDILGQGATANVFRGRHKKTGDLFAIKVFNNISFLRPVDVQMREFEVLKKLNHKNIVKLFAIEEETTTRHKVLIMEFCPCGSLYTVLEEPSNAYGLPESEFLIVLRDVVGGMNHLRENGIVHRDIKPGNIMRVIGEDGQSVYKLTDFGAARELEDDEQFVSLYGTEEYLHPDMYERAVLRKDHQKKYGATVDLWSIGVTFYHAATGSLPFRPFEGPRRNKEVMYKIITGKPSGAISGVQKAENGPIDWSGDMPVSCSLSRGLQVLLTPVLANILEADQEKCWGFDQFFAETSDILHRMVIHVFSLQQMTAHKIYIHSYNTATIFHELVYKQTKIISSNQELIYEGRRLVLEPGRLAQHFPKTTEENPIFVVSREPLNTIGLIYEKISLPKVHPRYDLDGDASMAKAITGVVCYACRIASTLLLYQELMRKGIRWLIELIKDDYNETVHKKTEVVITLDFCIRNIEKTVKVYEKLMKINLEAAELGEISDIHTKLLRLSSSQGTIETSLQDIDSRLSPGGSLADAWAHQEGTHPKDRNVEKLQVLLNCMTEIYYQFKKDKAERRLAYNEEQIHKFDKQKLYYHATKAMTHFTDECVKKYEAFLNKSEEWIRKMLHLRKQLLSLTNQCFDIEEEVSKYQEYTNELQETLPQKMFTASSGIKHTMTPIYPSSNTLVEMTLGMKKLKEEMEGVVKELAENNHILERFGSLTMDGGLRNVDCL
Here is the method:
as §1

The next assay concerns the target T4, PAK6 (Homo sapiens, UniProt Q9NQU5).
T4 construct: purchased Reaction Biology Europe GmbH (formerly ProQinase)
Here is the method:
as §1

A further assay has as its target T5, MATK (Homo sapiens, UniProt P42679).
T5 construct: purchased Reaction Biology Europe GmbH (formerly ProQinase)
T5 sequence (P42679 1-507): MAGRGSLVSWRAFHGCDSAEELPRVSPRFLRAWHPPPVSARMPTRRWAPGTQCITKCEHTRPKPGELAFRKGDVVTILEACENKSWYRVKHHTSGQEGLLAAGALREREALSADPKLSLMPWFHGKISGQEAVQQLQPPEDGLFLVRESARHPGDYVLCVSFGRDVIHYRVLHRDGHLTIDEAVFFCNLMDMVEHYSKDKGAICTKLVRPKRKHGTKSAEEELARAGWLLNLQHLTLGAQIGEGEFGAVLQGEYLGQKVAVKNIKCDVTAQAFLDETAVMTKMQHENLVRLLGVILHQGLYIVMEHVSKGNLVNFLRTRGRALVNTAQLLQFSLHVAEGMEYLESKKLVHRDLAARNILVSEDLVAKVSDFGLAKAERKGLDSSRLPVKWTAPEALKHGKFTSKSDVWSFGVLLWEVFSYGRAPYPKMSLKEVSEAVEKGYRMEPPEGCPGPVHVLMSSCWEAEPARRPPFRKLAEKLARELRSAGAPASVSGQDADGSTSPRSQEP
The protocol:
as §1

A further assay has as its target T6, JNK3 (Homo sapiens, UniProt P53779).
T6 construct: purchased Reaction Biology Europe GmbH (formerly ProQinase)
Here is the method:
as §1

The next assay concerns the target T7, PKCι (Homo sapiens, UniProt P41743).
T7 construct: purchased Reaction Biology Europe GmbH (formerly ProQinase)
T7 sequence (P41743 1-596): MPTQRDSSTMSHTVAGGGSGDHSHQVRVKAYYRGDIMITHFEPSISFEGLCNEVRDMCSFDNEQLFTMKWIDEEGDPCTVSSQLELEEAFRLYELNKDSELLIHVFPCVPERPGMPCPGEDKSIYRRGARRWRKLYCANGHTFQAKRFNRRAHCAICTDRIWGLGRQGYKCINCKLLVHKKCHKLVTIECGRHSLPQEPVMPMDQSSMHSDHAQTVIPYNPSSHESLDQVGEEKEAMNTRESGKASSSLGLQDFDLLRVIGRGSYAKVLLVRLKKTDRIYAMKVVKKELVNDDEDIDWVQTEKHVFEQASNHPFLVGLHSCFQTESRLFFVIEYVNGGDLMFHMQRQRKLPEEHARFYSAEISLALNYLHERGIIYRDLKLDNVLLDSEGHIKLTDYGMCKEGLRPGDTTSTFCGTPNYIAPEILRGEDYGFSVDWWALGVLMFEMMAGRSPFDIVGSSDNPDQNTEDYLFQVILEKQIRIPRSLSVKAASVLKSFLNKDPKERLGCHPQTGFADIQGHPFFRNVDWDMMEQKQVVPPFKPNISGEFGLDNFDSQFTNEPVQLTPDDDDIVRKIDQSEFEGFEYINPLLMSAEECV
The protocol: as §1

T1 sequence (P11802 whole entry): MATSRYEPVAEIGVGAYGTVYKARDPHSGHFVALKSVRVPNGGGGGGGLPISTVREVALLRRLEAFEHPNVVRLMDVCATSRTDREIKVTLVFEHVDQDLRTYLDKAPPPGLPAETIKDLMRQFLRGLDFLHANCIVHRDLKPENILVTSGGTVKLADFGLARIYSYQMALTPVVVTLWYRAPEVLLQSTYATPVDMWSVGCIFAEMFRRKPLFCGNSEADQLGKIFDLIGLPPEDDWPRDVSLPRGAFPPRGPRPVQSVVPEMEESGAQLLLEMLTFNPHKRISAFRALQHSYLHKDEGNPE
T1 sequence (P24385 whole entry partner): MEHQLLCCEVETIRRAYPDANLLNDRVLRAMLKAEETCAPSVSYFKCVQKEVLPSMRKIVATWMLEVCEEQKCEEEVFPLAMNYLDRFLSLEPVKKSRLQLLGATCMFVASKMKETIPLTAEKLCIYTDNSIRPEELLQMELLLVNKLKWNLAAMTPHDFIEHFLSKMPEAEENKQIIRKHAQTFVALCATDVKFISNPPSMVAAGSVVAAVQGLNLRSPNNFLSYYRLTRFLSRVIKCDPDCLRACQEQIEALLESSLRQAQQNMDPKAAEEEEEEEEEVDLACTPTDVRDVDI
T6 sequence (P53779 whole entry): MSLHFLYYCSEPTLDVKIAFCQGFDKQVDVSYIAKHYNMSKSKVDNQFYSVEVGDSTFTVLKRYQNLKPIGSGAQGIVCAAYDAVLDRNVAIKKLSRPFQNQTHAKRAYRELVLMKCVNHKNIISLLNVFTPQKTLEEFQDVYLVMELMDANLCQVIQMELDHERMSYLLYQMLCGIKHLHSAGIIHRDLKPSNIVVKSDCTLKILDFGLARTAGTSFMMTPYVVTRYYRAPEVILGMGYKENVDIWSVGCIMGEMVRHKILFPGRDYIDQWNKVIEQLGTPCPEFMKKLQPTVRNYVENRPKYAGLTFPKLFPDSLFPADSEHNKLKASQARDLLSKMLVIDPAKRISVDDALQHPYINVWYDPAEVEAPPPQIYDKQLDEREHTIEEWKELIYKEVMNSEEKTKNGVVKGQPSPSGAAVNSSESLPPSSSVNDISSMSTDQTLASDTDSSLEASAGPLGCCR
T4 sequence (Q9NQU5 whole entry): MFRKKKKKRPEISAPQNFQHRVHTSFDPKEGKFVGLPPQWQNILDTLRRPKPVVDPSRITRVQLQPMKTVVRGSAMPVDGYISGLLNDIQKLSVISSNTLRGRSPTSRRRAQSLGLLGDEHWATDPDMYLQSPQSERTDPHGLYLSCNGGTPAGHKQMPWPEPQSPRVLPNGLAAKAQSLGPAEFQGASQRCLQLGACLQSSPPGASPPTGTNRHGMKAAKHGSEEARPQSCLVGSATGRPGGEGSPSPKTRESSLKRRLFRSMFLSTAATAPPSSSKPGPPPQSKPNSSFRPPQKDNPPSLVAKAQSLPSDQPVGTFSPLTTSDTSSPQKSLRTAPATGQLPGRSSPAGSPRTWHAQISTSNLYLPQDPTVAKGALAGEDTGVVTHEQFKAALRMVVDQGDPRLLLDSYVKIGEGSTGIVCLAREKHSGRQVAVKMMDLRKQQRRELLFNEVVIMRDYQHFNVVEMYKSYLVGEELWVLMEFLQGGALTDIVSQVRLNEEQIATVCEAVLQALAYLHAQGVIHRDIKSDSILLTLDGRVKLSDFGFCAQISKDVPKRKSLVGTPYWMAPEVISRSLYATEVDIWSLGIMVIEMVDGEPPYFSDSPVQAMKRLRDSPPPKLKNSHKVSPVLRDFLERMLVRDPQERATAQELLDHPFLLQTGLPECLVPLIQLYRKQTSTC
T2 sequence (Q9Y243 whole entry): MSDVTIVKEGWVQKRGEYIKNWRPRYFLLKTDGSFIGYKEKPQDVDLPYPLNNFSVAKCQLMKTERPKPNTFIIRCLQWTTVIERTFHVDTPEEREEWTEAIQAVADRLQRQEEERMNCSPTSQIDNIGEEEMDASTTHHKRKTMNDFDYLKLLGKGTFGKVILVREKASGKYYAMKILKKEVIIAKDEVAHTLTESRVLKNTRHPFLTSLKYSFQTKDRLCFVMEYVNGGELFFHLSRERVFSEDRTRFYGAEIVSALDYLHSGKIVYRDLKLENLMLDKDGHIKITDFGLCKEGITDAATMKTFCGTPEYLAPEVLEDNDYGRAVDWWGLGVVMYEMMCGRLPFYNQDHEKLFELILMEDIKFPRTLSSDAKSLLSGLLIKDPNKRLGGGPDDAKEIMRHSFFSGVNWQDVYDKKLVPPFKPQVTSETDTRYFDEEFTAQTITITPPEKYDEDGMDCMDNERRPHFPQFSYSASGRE

Turning to `c1ccc(CNc2cc(-c3c[nH]c4ncccc34)ccn2)cc1` [meriolin 36], the residual kinase activity at CDK4/CycD1 (0.3 µM) was 24 % of control; on CDK4/CycD1 (3 µM) it was 4 % of control; at AKT3 (0.3 µM), 93 % of control; at AKT3 (3 µM) it was 42 % of control; at TBK1 (0.3 µM) it was 48 % of control; on TBK1 (3 µM) it was 10 % of control. In addition, the residual kinase activity at PAK6 (0.3 µM) is on record as 54 % of control; at PAK6 (3 µM), 14 % of control; at MATK (0.3 µM) it was 134 % of control; at MATK (3 µM), 94 % of control; at JNK3 (0.3 µM), 54 % of control; on JNK3 (3 µM), 13 % of control. The results for the residual kinase activity at PKCι (0.3 µM) and on PKCι (3 µM) were 75 % of control and 32 % of control, respectively.
Take `COc1ccnc2[nH]cc(-c3cc(N)nc(N)c3)c12` [meriolin 16]: the residual kinase activity at CDK4/CycD1 (0.03 µM) is recorded as 86 % of control; at CDK4/CycD1 (0.3 µM) it was 36 % of control; on AKT3 (0.03 µM), 108 % of control; on AKT3 (0.3 µM) it was 82 % of control; on TBK1 (0.03 µM) it was 114 % of control; on TBK1 (0.3 µM), 99 % of control. Besides, the residual kinase activity was 88 % of control on PAK6 (0.03 µM); 76 % of control on PAK6 (0.3 µM); 107 % of control at MATK (0.03 µM); 90 % of control at MATK (0.3 µM); 73 % of control on JNK3 (0.03 µM); 68 % of control on JNK3 (0.3 µM). Moreover, the residual kinase activity at PKCι (0.03 µM) is 105 % of control; on PKCι (0.3 µM), 94 % of control.
